The test system of assay [1] is genotype 1b (Con-1) HCV replicon in Huh-7 cells. The assay can be described thus: HCV replicon luciferase assay. The assay is classed as cell-based. Conditions: 1b replicon, Huh-7, Renilla luciferase, 3 days incubation. On the procedure: The cell lines used to evaluate compounds consist of a human hepatocyte derived cell line (Huh-7) that constitutively expresses a genotype 1b (Con-1) HCV replicon or a genotype 1b (Con-1) HCV replicon with an asparagine replacing the cysteine at amino acid 316, or a genotype 2a (JFH-1) replicon, containing a Renilla luciferase reporter gene. These cells were maintained in Dulbecco's modified Eagle medium (DMEM) containing 10% FBS, 100 U/mL penicillin/streptomycin and 1.0 mg/mL G418.
HCV Replicon Luciferase Assay.
To evaluate compound efficacy, titrated compounds were transferred to sterile 384-well tissue culture treated plates, and the plates were seeded with HCV replicon cells (50 μL at a density of 2.4×10^3 cells/well) in DMEM containing 4% FBS (final DMSO concentration at 0.5%). After 3 days incubation at 37° C., cells were analyzed for Renilla Luciferase activity using the EnduRen substrate (Promega cat # E6485) according to the manufacturer's directions. Briefly, the EnduRen substrate was diluted in DMEM and then added to the plates to a final concentration of 7.5 μM. The plates were incubated for at least 1 h at 37° C. then read on a Viewlux Imager (PerkinElmer) using a luminescence program. The 50% effective concentration (EC50) was calculated using the four-parameter logistic formula noted above.
(A replicon is a self-replicating genome or part of one, used to study replication in cells.)

The target of assay [2] is T1, NS5B proteins of HCV genotype 1b (Con1) (Hepatitis C virus genotype 1b, UniProt Q9WMX2).
T1 construct: Each untagged protein was expressed with an 18 amino acid C-terminal truncation to enhance the solubility; made in house; host or cells: E. coli BL21(DE3), pET21a
In words: HCV NS5B RdRp enzyme assay. The settings on record: 1b enzyme. The assay is classed as biochemical. On the procedure:
HCVNS5B RdRp Cloning, Expression, and Purification.
The cDNA encoding NS5B proteins of HCV genotype 1b (Con1), a genotype 1b variant with amino acid 316 mutated from cysteine to asparagine, and genotype 2a (JFH-1), were cloned into the pET21a expression vector. Each untagged protein was expressed with an 18 amino acid C-terminal truncation to enhance the solubility. The E. coli competent cell line BL21(DE3) was used for expression of the protein. Cultures were grown at 37° C. for ˜4 hours until the cultures reached an optical density of 2.0 at 600 nm. The cultures were cooled to 20° C. and induced with 1 mM IPTG. Fresh ampicillin was added to a final concentration of 50 μg/mL and the cells were grown overnight at 20° C.
Cell pellets (3 L) were lysed for purification to yield 15-24 mgs of purified NS5B. The lysis buffer consisted of 20 mM Tris-HCl, pH 7.4, 500 mM NaCl, 0.5% triton X-100, 1 mM DTT, 1 mM EDTA, 20% glycerol, 0.5 mg/mL lysozyme, 10 mM MgCl2, 15 ug/mL deoxyribonuclease I, and Complete TM protease inhibitor tablets (Roche). After addition of the lysis buffer, frozen cell pellets were resuspended using a tissue homogenizer. To reduce the viscosity of the sample, aliquots of the lysate were sonicated on ice using a microtip attached to a Branson sonicator. The sonicated lysate was centrifuged at 100,000×g for 30 minutes at 4° C. and filtered through a 0.2 μm filter unit (Corning).
The protein was purified using two sequential chromatography steps: Heparin sepharose CL-6B and polyU sepharose 4B. The chromatography buffers were identical to the lysis buffer but contained no lysozyme, deoxyribonuclease I, MgCl2 or protease inhibitor and the NaCl concentration of the buffer was adjusted according to the requirements for charging the protein onto the column. Each column was eluted with a NaCl gradient which varied in length from 5-50 column volumes depending on the column type. After the final chromatography step, the resulting purity of the enzyme is >90% based on SDS-PAGE analysis. The enzyme was aliquoted and stored at −80° C.
HCVNS5B RdRp Enzyme Assay.
An on-bead solid phase homogeneous assay was used in a 384-well format to assess NS5B inhibitors (WangY-K, Rigat K, Roberts S, and Gao M (2006) Anal Biochem, 359: 106-111). The biotinylated oligo dT12 primer was captured on streptavidin-coupled imaging beads (GE, RPNQ0261) by mixing primer and beads in 1× buffer and incubating at room temperature for three hours. Unbound primer was removed after centrifugation. The primer-bound beads were resuspended in 3× reaction mix (20 mM Hepes buffer, pH 7.5, dT primer coupled beads, poly A template, ^3H-UTP, and RNAse inhibitor (Promega N2515)). Compounds were serially diluted 1:3 in DMSO and aliquoted into assay plates. Equal volumes (10 μL) of water, 3× reaction mix, and enzyme in 3× assay buffer (60 mM Hepes buffer, pH 7.5, 7.5 mM MgCl2, 7.5 mM KCl, 3 mM DTT, 0.03 mg/mL BSA, 6% glycerol) were added to the diluted compound on the assay plate. Final concentration of components in 384-well assay: 0.36 nM template, 15 nM primer, 0.29 μM ^3H-UTP (0.3 μCi), 1.6 U/μL RNAse inhibitor, 7 nM NS5B enzyme, 0.01 mg/mL BSA, 1 mM DTT, and 0.33 μg/μL beads, 20 mM Hepes buffer, pH 7.5, 2.5 mM MgCl2, 2.5 mM KCl, and 0.1% DMSO.
Reactions were allowed to proceed from 4 to 24 hours at 30° C. For 24 hour reactions, enzyme and inhibitors were pre-incubated for 24 hours before adding template and primer. Reactions were terminated by the addition of 50 mM EDTA (10 μL). After incubating for at least 15 minutes, plates were read on an Amersham LEADseeker multimodality imaging system.
IC50 values for compounds were determined using ten different [I]. IC50 values were calculated from the inhibition using the four-parameter logistic formula y=A+((B−A)/(1+((C/x)^D))), where A and B denote minimal and maximal % inhibition, respectively, C is the IC50, D is hill slope and x represents compound concentration.

pEC50, pIC50: −log10 of the molar value.

T1 sequence (Q9WMX2 2420-2992): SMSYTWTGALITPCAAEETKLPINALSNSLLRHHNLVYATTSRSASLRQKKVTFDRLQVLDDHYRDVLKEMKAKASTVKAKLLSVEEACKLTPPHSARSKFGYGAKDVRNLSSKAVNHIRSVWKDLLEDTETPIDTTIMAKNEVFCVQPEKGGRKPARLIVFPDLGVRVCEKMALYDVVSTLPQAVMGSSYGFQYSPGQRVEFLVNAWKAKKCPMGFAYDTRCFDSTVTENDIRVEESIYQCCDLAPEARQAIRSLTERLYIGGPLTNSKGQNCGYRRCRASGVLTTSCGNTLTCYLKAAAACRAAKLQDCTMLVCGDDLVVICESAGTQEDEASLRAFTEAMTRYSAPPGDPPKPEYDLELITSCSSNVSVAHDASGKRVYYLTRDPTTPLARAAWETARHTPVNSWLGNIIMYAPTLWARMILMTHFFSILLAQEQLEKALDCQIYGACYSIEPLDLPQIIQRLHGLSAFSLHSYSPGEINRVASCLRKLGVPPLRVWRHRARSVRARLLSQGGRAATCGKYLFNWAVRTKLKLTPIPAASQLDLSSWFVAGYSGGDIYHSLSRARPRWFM

With `CNC(=O)c1c(-c2ccc(F)cc2)oc2ccc(-c3cc(C(=O)NC4(c5ncccn5)CC(O)C4)cc(F)c3C)c(F)c12` (single isomer, unassigned) [Example 9a, 4-Fluoro-5-(3-fluoro-5-((3-hydroxy-1-(pyrimidin-2-yl)cyclobutyl)carbamoyl)-2-methylphenyl)-2-(4-fluorophenyl)-N-methylbenzofuran-3-carboxamide], the pEC50 in assay [1] (Hepatitis C virus, Huh-7, 72 h) was 6.33. Moreover, in assay [2], the pIC50 is 6.24.
For the molecule `CNC(=O)c1c(-c2ccc(F)cc2)oc2cc(CCC(F)(F)F)c(-c3cccc(C(=O)NC4(c5ncccn5)CC(OC(F)(F)F)C4)c3)cc12` (single isomer, unassigned) [Example 45b, 2-(4-Fluorophenyl)-N-methyl-5-(3-((1-(pyrimidin-2-yl)-3-(trifluoromethoxy)cyclobutyl)carbamoyl)phenyl)-6-(3,3,3-trifluoropropyl)benzofuran-3-carboxamide], in assay [1], the pEC50 is 8.02. For the same molecule, the pIC50 in assay [2] was 8.00.
The matching figures for `CCOc1cc2oc(-c3ccc(F)cc3)c(C(=O)NC)c2cc1-c1ccc(OC)c(C(=O)NC2(c3ncccn3)CC(OC(F)F)C2)c1` (single isomer, unassigned) [Example 66b, 5-(3-((3-(Difluoromethoxy)-1-(pyrimidin-2-yl)cyclobutyl)carbamoyl)-4-methoxyphenyl)-6-ethoxy-2-(4-fluorophenyl)-N-methylbenzofuran-3-carboxamide]: 8.36 and 8.69.
In the case of `CCOc1cc2oc(-c3ccc(F)cc3)c(C(=O)NC)c2cc1-c1ccc(OC)c(C(=O)NC2(c3ncccn3)CC(OC(F)F)C2)c1` (single isomer, unassigned) [Example 66a, 5-(3-((3-(Difluoromethoxy)-1-(pyrimidin-2-yl)cyclobutyl)carbamoyl)-4-methoxyphenyl)-6-ethoxy-2-(4-fluorophenyl)-N-methylbenzofuran-3-carboxamide], the pEC50 in assay [1] (Hepatitis C virus, Huh-7, 72 h) is 8.39. This molecule also gave a pIC50 in assay [2] of 8.72.
The matching figures for `CNC(=O)c1c(-c2ccc(F)cc2)oc2ccc(-c3cc(C(=O)NC4(c5ncccn5)CC(OC)(OC)C4)cc(F)c3C)c(F)c12` [Example 8, 5-(5-(3,3-Dimethoxy-1-(pyrimidin-2-yl)cyclobutylcarbamoyl)-3-fluoro-2-methylphenyl)-4-fluoro-2-(4-fluorophenyl)-N-methylbenzofuran-3-carboxamide]: 7.70 and 7.40.
The molecule `CNC(=O)c1c(-c2ccc(F)cc2)oc2ccc(-c3cc(C(=O)NC4(c5ncccn5)CC(OC)C4)c(OC)cc3C)c(F)c12` (single isomer, unassigned) [Example 13b, 4-Fluoro-2-(4-fluorophenyl)-5-(4-methoxy-5-((3-methoxy-1-(pyrimidin-2-yl)cyclobutyl)carbamoyl)-2-methylphenyl)-N-methylbenzofuran-3-carboxamide] had a pEC50 in assay [1] of 8.19. In assay [2], this molecule showed a pIC50 of 7.70.
The matching figures for `CNC(=O)c1c(-c2ccc(F)cc2)oc2ccc(-c3cc(C(=O)NC4(c5ncccn5)CC(OC)C4)c(OC)cc3C)c(F)c12` (single isomer, unassigned) [Example 13a, 4-Fluoro-2-(4-fluorophenyl)-5-(4-methoxy-5-((3-methoxy-1-(pyrimidin-2-yl)cyclobutyl)carbamoyl)-2-methylphenyl)-N-methylbenzofuran-3-carboxamide]: 7.52 and 7.52.
`CCCc1cc2oc(-c3ccc(F)cc3)c(C(=O)NC)c2cc1-c1ccc(OC)c(C(=O)NC2(c3ncccn3)CC(OC(F)(F)F)C2)c1` (single isomer, unassigned) [Example 51b, 2-(4-Fluorophenyl)-5-(4-methoxy-3-((1-(pyrimidin-2-yl)-3-(trifluoromethoxy)cyclobutyl)carbamoyl)phenyl)-N-methyl-6-propylbenzofuran-3-carboxamide] showed a pEC50 in assay [1] of 8.00. In assay [2], this molecule showed a pIC50 of 7.70.
In assay [1] (Hepatitis C virus, Huh-7, 72 h), `CCCc1cc2oc(-c3ccc(F)cc3)c(C(=O)NC)c2cc1-c1cccc(C(=O)NC2(c3ncccn3)CC(OC(F)(F)F)C2)c1` (stereo not shown) [Example 44, 2-(4-Fluorophenyl)-N-methyl-6-propyl-5-(3-((1-(pyrimidin-2-yl)-3-(trifluoromethoxy)cyclobutyl)carbamoyl)phenyl)benzofuran-3-carboxamide] showed a pEC50 of 8.02. Moreover, the pIC50 in assay [2] was 8.23.
In the case of `CCCc1cc2oc(-c3ccc(F)cc3)c(C(=O)NC)c2cc1-c1cc(C(=O)NC2(c3ncccn3)CC(OC(F)(F)F)C2)c(OC)cc1C` (single isomer, unassigned) [Example 50a, 2-(4-Fluorophenyl)-5-(4-methoxy-2-methyl-5-((1-(pyrimidin-2-yl)-3-(trifluoromethoxy)cyclobutyl)carbamoyl)phenyl)-N-methyl-6-propylbenzofuran-3-carboxamide], in assay [1] (Hepatitis C virus, Huh-7, 72 h), the pEC50 is 6.92.
`CCCc1cc2oc(-c3ccc(F)cc3)c(C(=O)NC)c2cc1-c1cccc(C(=O)NC2(c3ncccn3)CC(OC(F)F)C2)c1` (stereo not shown) [Example 33, 5-(3-((3-(Difluoromethoxy)-1-(pyrimidin-2-yl)cyclobutyl)carbamoyl)phenyl)-2-(4-fluorophenyl)-N-methyl-6-propylbenzofuran-3-carboxamide] gave a pEC50 in assay [1] (Hepatitis C virus, Huh-7, 72 h) of 8.34.
The same measure, in the same setting: with `CNC(=O)c1c(-c2ccc(F)cc2)oc2cc(CCC(F)(F)F)c(-c3cc(C(=O)NC4(c5ncccn5)CC(OC(F)(F)F)C4)c(OC)cc3C)cc12` (single isomer, unassigned) [Example 46a, 2-(4-Fluorophenyl)-5-(4-methoxy-2-methyl-5-((1-(pyrimidin-2-yl)-3-(trifluoromethoxy)cyclobutyl)carbamoyl)phenyl)-N-methyl-6-(3,3,3-trifluoropropyl)benzofuran-3-carboxamide] the figure was 7.40; with `CCN(c1cc2oc(-c3ccc(F)cc3)c(C(=O)NC)c2c(F)c1-c1cccc(C(=O)NC2(c3ncccn3)CC(F)C2)c1)S(C)(=O)=O` (stereo not shown) [Example 22, 6-(N-ethylmethylsulfonamido)-4-fluoro-5-(3-((3-fluoro-1-(pyrimidin-2-yl)cyclobutyl)carbamoyl)phenyl)-2-(4-fluorophenyl)-N-methylbenzofuran-3-carboxamide], 8.31.

The term pEC50 denotes −log10 of the EC50, conventionally taken in molar units. High values mean a low EC50, low ones a high EC50. As usually defined, the pIC50 is the IC50 on a negative log10 scale, so that one unit is a factor of ten. Lower therefore signals a large IC50.

(Values after US11161837B2, “Benzofuran derivatives for the treatment of hepatitis C” (BRISTOL-MYERS SQUIBB COMPANY, priority 2016, dated 2021).)
